According to BigSolDB 2.1:

COC(=O)c1cccc(C(=O)OC)n1
solubility (mole fraction)
Details	278.15 K	283.15 K	288.15 K	293.15 K	298.15 K	303.15 K	308.15 K	313.15 K	318.15 K	323.15 K
in DMSO	–	–	–	0.0174	0.0205	0.0271	0.0323	0.0435	0.0503	0.0658
in THF	0.00553	0.00773	0.00891	0.0115	0.0138	0.0166	0.0219	0.0293	0.0373	0.046
in ethanol	0.00042	0.00068	0.00103	0.00147	0.00215	0.00323	0.00436	0.00576	0.00757	0.0101
in ethyl acetate	0.00335	0.00364	0.00549	0.0082	0.0105	0.0149	0.019	0.0261	0.0326	–
in isopentyl acetate	0.00146	0.00192	0.00252	0.00334	0.00438	0.00576	0.00729	0.00944	0.0158	0.0216
in isopropanol	0.00032	0.00049	0.00071	0.00116	0.0017	0.0022	0.0032	0.00414	0.00579	0.00785
in isopropyl acetate	0.00191	0.00235	0.00343	0.00516	0.00721	0.0094	0.0117	0.0161	0.0202	0.0262
in methanol	0.00057	0.00092	0.00142	0.00199	0.00283	0.00425	0.0055	0.0075	0.00974	0.012
in methyl acetate	0.00524	0.00759	0.0118	0.0145	0.0201	0.0255	0.0312	0.041	0.0489	0.0635
in n-butyl acetate	0.0015	0.00203	0.00286	0.00462	0.00671	0.00883	0.0113	0.0158	0.0201	0.026
in n-pentyl acetate	–	0.0027	0.0038	0.00459	0.00625	0.00851	0.0111	0.015	0.0189	0.0243
in n-propanol	0.00032	0.0005	0.00078	0.0011	0.00171	0.00228	0.00357	0.00476	0.00621	0.00839
